Laboratory results published in ChEMBL document CHEMBL3045274, “Xyloccensins QV, six new 8,9,30-phragmalin ortho ester antifeedants from the Chinese mangrove Xylocarpus granatum” (Tetrahedron, 2005).
Activity calls are given as the source filed them. The rule behind the calls is not given here.

The compounds below were run on Mythimna separata (assay: Antifeedant activity against third instar larvae of Mythimna separata (Oriental armyworm) in compound treated leaf disk at 500 ppm).
Format: functional, organism-based
In the case of `COC(=O)C[C@@H]1[C@@]2(C)C[C@@]3(O)[C@@](O)([C@@H]2OC(C)=O)[C@@H]2O[C@]4(C)O[C@]5(C[C@@H](OC(C)=O)[C@@]6(C)C(=CC(=O)O[C@@H]6c6ccoc6)[C@]25O4)[C@@]13C`, the Activity is reported as “inactive”. In the case of `COC(=O)[C@@H](O)[C@@H]1[C@@]2(C)C[C@@]3(O)[C@@](O)([C@@H]2OC(C)=O)[C@@H]2O[C@]4(C)O[C@]5(C[C@@H](OC(C)=O)[C@@]6(C)C(=CC(=O)O[C@@H]6c6ccoc6)[C@]25O4)[C@@]13C`, the Activity is reported as “inactive”. For `COC(=O)[C@@H](O)[C@@H]1[C@@]2(C)C[C@@]3(O)[C@H]([C@H]4O[C@]5(C)O[C@]6(C[C@@H](OC(C)=O)[C@@]7(C)C(=CC(=O)O[C@@H]7c7ccoc7)[C@]46O5)[C@@]13C)[C@@H]2OC(C)=O`, the Activity was “inactive”. `COC(=O)[C@@H](O)[C@@H]1[C@@]2(C)C[C@@]3(O)[C@@](OC(C)=O)([C@@H]2OC(C)=O)[C@@H]2O[C@]4(C)O[C@]5(C[C@@H](OC(C)=O)[C@@]6(C)C(=CC(=O)O[C@@H]6c6ccoc6)[C@]25O4)[C@@]13C` was tested, and the Activity was “inactive”. With `COC(=O)[C@H](OC(C)=O)[C@H]1[C@]2(C)C[C@]3(O)[C@@](OC(C)=O)([C@H]4O[C@@]5(C)O[C@@]6(CC[C@@]7(C)[C@H](c8ccoc8)OC(=O)C[C@@]7(O)[C@@]46O5)[C@]13C)[C@H]2OC(C)=O` the Activity was “Active”. In the case of `COC(=O)[C@@H](OC(C)=O)[C@@H]1[C@@]2(C)C[C@@]3(O)[C@@](O)([C@@H]2OC(C)=O)[C@@H]2O[C@]4(C)O[C@]5(C[C@@H](OC(C)=O)[C@@]6(C)C(=CC(=O)O[C@@H]6c6ccoc6)[C@]25O4)[C@@]13C`, the Activity is reported as “Active”. In the case of `COC(=O)[C@H](OC(C)=O)[C@H]1[C@]2(C)C[C@]3(O)[C@H]([C@H]2OC(C)=O)[C@H]2O[C@@]4(C)O[C@@]5(CC[C@@]6(C)[C@H](c7ccoc7)OC(=O)C[C@@]6(O)[C@@]25O4)[C@]13C`, the Activity is reported as “inactive”. `COC(=O)C[C@@H]1[C@@]2(C)C[C@@]3(O)[C@@](OC(C)=O)([C@@H]2OC(C)=O)[C@@H]2O[C@]4(C)O[C@]5(C[C@@H](OC(C)=O)[C@@]6(C)C(=CC(=O)O[C@@H]6c6ccoc6)[C@]25O4)[C@@]13C` was tested, and the Activity was “inactive”.
